Results reported in publication PMC4923258, “A Recombinant Human Pluripotent Stem Cell Line Stably Expressing Halide-Sensitive YFP-I152L for GABAAR and GlyR-Targeted High-Throughput Drug Screening and Toxicity Testing” (Frontiers in Molecular Neuroscience, 2016).
“And” between values parts separate entries of the source, which are not always exact repeats. Identical values can stand only once. Like-named read-outs stand apart in the source and are kept apart here.

Legend:
GlyR [1] = type: cell-based, human
Protocol: (§1) To this end, human pluripotent NT2-YFP-I152L cells were differentiated into neuronal NT2-N-YFP-I152L cells as described in the Methods section and were seeded at a density of 2 × 10^4 cells in each well of a 96-well plate. 48 h later, the culture medium was completely removed and was replaced by 50 μl NaCl control solution.
(§2) Approximately 1 h prior to commencement of experiments culture media in 96-well plates was removed manually and was replaced by 50 μl standard control solution, which contained (in mM) NaCl 140, KCl 5, CaCl2 2, MgCl2 1, HEPES 10, and glucose 10 (pH 7.4, NaOH) upon washing the cells once in 50 μl standard control solution. […] All drugs were diluted from stocks at the day of the experiment and experiments were conducted at room temperature.
(§3) The experimental protocol involved imaging each well for 30 s at 2 Hz acquisition rate capturing the initial fluorescence intensity in the control situation as well as the test situation upon receptor activation, respectively. Liquid handling was performed manually.
(§4) Cells depicted in fluorescence micrographs were selected manually based on strongest quench for low and intermediate concentrations and based on cell morphology in experiments where high drug concentrations were applied. Registered images of fluorescent cells were segmented and quantitatively analyzed using NIS-Elements software (Nikon, Japan). The fluorescence signal of identified cells was measured in images acquired before and after the addition of agonist solution as the mean of all pixel values within the area of a cell. “% fluorescence quench” in chloride imaging experiments is defined as %fluorescence quench=(Finit−Ffinal)∗100/Finit where Finit and Ffinal are the initial and final values of fluorescence, respectively.
(§5) Individual concentration responses were constructed by pooling results from ten cells in one well exposed to agonist solution. Concentration-response relationships were fitted with the following equation: F= Fmax+Fmin− Fmax/1+([Agonist]/EC50)^nH where F is the fluorescence corresponding to a particular agonist concentration, [Agonist]; Fmin and Fmax are the minimal and maximal fluorescence values, respectively; EC50 is the concentration that elicits half-maximal activation; and nH is the Hill coefficient. Curve fits were performed using a least squares fitting routine (Origin 7G, OriginLab Corporation). All averaged results are expressed as mean ± SD.

GABAAR [2] = type: cell-based, human; conditions: 1 μM GABA
Protocol: as §1, §2, §3, §4, §5

GABAAR [3] = type: cell-based, human; conditions: GABA concentration-response, mean ± SD, n = 10
Protocol: (§6) To assess whether the generated recombinant stem cell line is suitable to chloride imaging and functional profiling of GABAARs and GlyRs, NT2-YFP-I152L cells were differentiated into neuronal NT2-N- YFP-I152L cells as described in the Methods section and were seeded at defined density of 2 × 10^4 cells in each well of a 96-well plate. Two days later and approximately 1 h prior to fluorescence imaging, the culture medium was completely removed and was replaced by 50 μl NaCl control solution. The standard NaCl control solution contained (in mM): NaCl 140, KCl 5, CaCl2 2, MgCl2 1, HEPES 10, glucose 10, pH 7.4 using NaOH. The 96-well plate was placed onto the motorized stage of a high-content imaging system and cells were imaged in control solution to record cellular YFP fluorescence in unquenched state. Because YFP-I152L is almost insensitive to chloride, its fluorescence intensity is highest in NaCl solution allowing for optimal focussing into the optical layer of cells. […] Fluorescence quench was calculated at single cell level by quantitative analysis as described in the Methods section. […]
(§7) The experimental protocol involved imaging each well for 30 s at 2 Hz acquisition rate capturing the initial fluorescence intensity in the control situation as well as the test situation upon receptor activation, respectively. […]

GABAAR [4] = experiment: Proportion of cells with at least 20% fluorescence quench at saturating GABA; type: cell-based, human; conditions: for Percentage of non-treated NT2-YFP-I152L stem cells responding with at least 20% fluorescence quench: 1 mM saturating GABA; for GABAAR-positive cells as percentage of the overall population / Percentage of cells per image with fluorescence quench of at least 20%: saturating GABA
From the text: (§8) The applicability of the established recombinant in vitro model for high-throughput GABAAR and GlyR-targeted screening in the context of lead identification and NT/DNT testing strongly depends on the proportion of GABAAR and GlyR positive NT2-N cells in the whole cell population. A very small percentage of GABAAR and GlyR expressing NT2-N cells requires a large number of individual experiments including technical and biological replicates to be conducted in order to obtain statistically sound results, potentially compromising the usability of the established cell line for the envisioned application. […] The threshold of 20% fluorescence quench was chosen because, from our experience, any measured cellular fluorescence change within a range of −20 to 20% reflects biological noise typical to the employed assay. As a starting point toward analysing the proportion of GABAAR and GlyR-positive cells we segmented the images of a total of 24 individual experiments from two different differentiation batches (GABAAR, batch #1: n = 7, batch #2: n = 6; GlyR, batch #1: n = 6, batch #2: n = 5) using a modified version of DetecTIFF^© software (Gilbert et al., [2009c]) employing two individual sets of parameters for the identification of small neuronal NT2-N-YFP-I152L and larger non-neuronal NT2-YFP-I152L cells. […] Exemplary segmentation masks created from the image shown in Figure 6A for quantitative analysis of fluorescence intensity and calculation of “% fluorescence quench” in small neuronal NT2-N-YFP-I152L cells and large non-neuronal cells are depicted in Figures 6B,C.
(§9) Images of fluorescent cells were segmented and quantitatively analyzed using a modified version of DetecTIFF® software (Gilbert et al., [2009c]). In brief, images were segmented using an iterative size and intensity-based thresholding algorithm and the fluorescence signal of identified cells was calculated as the mean of all pixel values within the area of a cell.

GlyR [5] = conditions: for Percentage of non-treated NT2-YFP-I152L stem cells responding with at least 20% fluorescence quench: 1 mM saturating glycine
From the text: as §8, §9

GlyR [6] = conditions: mean ± SD, n = 10; for nH (Hill coefficient): glycine concentration-response
Protocol: as §6, §7
Cells depicted in fluorescence micrographs were selected manually based on strongest quench for low and intermediate concentrations and based on cell morphology in experiments where high drug concentrations were applied. Registered images of fluorescent cells were segmented and quantitatively analyzed using NIS-Elements software (Nikon, Japan). The fluorescence signal of identified cells was measured in images acquired before and after the addition of agonist solution as the mean of all pixel values within the area of a cell. “% fluorescence quench” in chloride imaging experiments is defined as %fluorescence quench=(Finit−Ffinal)∗100/Finit where Finit and Ffinal are the initial and final values of fluorescence, respectively. […]

GABAARs = system: GABAARs; design: method as in Kumamoto and Murata, 1995; conditions: ref Kumamoto and Murata, 1995; cited from earlier work
GlyRs = system: GlyRs; design: method as in Harvey et al., 1999; conditions: ref Harvey et al., 1999, cited from earlier work
[7] = read-out: IC50 (Glycine), 3 μM glycine, n = 10
[8] = 3 μM glycine, n = 10, read-out: IC50 (Glycine)

## CN1CCc2cc3c(cc2[C@H]1[C@@H]1OC(=O)c2c1ccc1c2OCO1)OCO3 [Bicuculline, bicuculline]
GlyR [1]; ratio of IC50 vs glycine and IC50 vs GABA
  Sensitivity of glycine-induced I- influx compared to GABA-dependent anion influx (lower): about 10 fold
GlyR [1]; [7]
  IC50: 13.4 µM
GABAAR [2]; read-out: IC50 (GABA), n = 10
  IC50: 1.1 µM

## N#Cc1nn(-c2c(Cl)cc(C(F)(F)F)cc2Cl)c(N)c1[S+]([O-])C(F)(F)F (stereo not drawn) [Fipronil, fipronil]
GlyR [1]; [8]
  IC50: 1.5 µM
GABAAR [2]; read-out: IC50 (GABA), n = 10
  IC50: 10.8 µM

## NCCCC(=O)O [GABA, γ-aminobutyric acid]
GABAAR [3]
  nH (Hill coefficient): 1.8 ± 0.4 and 1.8
GABAAR [4]; replicate #1
  Percentage of non-treated NT2-YFP-I152L stem cells responding with at least 20% fluorescence quench: 0.62%
GABAAR [4]; replicate #2
  Percentage of non-treated NT2-YFP-I152L stem cells responding with at least 20% fluorescence quench: 0.37%
GABAAR [4]; batch #1
  GABAAR-positive cells as percentage of the overall population: 17 ± 8%
GABAAR [4]; batch #2
  GABAAR-positive cells as percentage of the overall population: 21 ± 9%
GABAAR [4]; large non-neuronal cells, batch #1, n = 7
  Percentage of cells per image with fluorescence quench of at least 20%: 3 ± 1%
GABAAR [4]; large non-neuronal cells, batch #2, n = 6
  Percentage of cells per image with fluorescence quench of at least 20%: 6 ± 2%
GABAAR [4]; small cells (NT2-N-YFP-I152L), batch #1, n = 7
  Percentage of cells per image with fluorescence quench of at least 20%: 28 ± 13%
GABAAR [4]; small cells (NT2-N-YFP-I152L), batch #2, n = 6
  Percentage of cells per image with fluorescence quench of at least 20%: 32 ± 12%

## NCC(=O)O [Glycine, glycine]
GlyR [5]
  Percentage of cells per image with fluorescence quench of at least 20%: 36 ± 14% and 35 ± 7%
GlyR [5]; replicate #1
  Percentage of non-treated NT2-YFP-I152L stem cells responding with at least 20% fluorescence quench: 0.68%
GlyR [5]; replicate #2
  Percentage of non-treated NT2-YFP-I152L stem cells responding with at least 20% fluorescence quench: 0.92%
GlyR [5]; saturating glycine, batch #1
  GlyR-positive cells as percentage of the overall population: 20 ± 9%
GlyR [5]; saturating glycine, batch #2
  GlyR-positive cells as percentage of the overall population: 19 ± 4%
GlyR [5]; saturating glycine, large non-neuronal cells, batch #1, n = 6
  Percentage of cells per image with fluorescence quench of at least 20%: 2 ± 1%
GlyR [5]; saturating glycine, large non-neuronal cells, batch #2, n = 5
  Percentage of cells per image with fluorescence quench of at least 20%: 4 ± 2%
GlyR [6]
  nH (Hill coefficient): 1.5
GlyR [6]; listed as glycine
  nH (Hill coefficient): 1.5 ± 0.2
GlyR [6]; read-out: EC50 (half-maximal activation concentration), glycine 0.1-1000 μM in NaI solution, quench 30 s after activation
  EC50: 4.3 µM

## Cl[C@H]1[C@H](Cl)[C@@H](Cl)[C@@H](Cl)[C@H](Cl)[C@H]1Cl [Lindane, lindane]
GlyR [1]; [8]
  IC50: 0.0781 µM
GABAAR [2]
  Inhibition of GABA-induced anion influx (in words): no dose-dependent inhibitory activity

## O=C1C[C@@H]2OCC=C3CN4CC[C@]56c7ccccc7N1[C@H]5[C@H]2[C@H]3C[C@H]46 [Strychnine, strychnine]
GlyR [1]; [7]
  IC50: 0.0172 µM
GABAAR [2]
  Inhibition of GABA-induced anion influx (in words): specifically inhibited glycine but not GABA-induced anion-influx

## [Cl-].[Cl-].[Zn+2] [Zinc, zinc chloride]
GABAARs
  Concentrations inhibiting GABAARs: > 10 µM
GlyR [1]; 3 μM glycine
  Concentrations at which inhibition of glycine-induced anion influx was observed: > 100 µM
GlyR [1]; 3 μM glycine, zinc 10 nM-1 mM, could not be calculated, presumed, read-out: IC50 (glycine-induced anion influx)
  IC50: > 1000 µM
GlyR [1]; in presence of 1 and 10 μM zinc, not significant
  Increase of glycine-induced fluorescence quench: about 10%
GABAAR [2]
  Concentrations at which inhibition of GABA-induced anion influx was observed: > 100 µM
GABAAR [2]; zinc 10 nM-1 mM, could not be calculated, presumed, read-out: IC50 (GABA-induced anion influx)
  IC50: > 1000 µM
GlyRs; high concentrations
  Concentrations inhibiting glycine-activated currents: > 100 µM
GlyRs; low concentrations
  Concentrations potentiating glycine-activated currents: < 10 µM

## picrotoxin
GlyR [1]; [8]
  IC50: 1.1 µM
GlyR [1]; ratio of IC50 vs GABA and IC50 vs glycine
  Sensitivity of GlyR compared to GABAARs (higher): approximately 5 fold
GABAAR [2]; read-out: IC50 (GABA), n = 10
  IC50: 5.8 µM
